Like-named read-outs stand apart in the source and are kept apart here.
Experiments:
[1] = tested on: X- and Y-chromosome bearing bovine sperm stained with Hoechst 33342; assay: Split quality: height of peak divided by height of valley (PV), flow cytometry of stained bovine sperm; type: cell-based; details: for Height of Peak/Height of Valley: Ex 5; for Height of Peak Divided by Height of Valley: Ex 7, Phenol Red 620 μM with Yellow 6 62 μM
[2] = tested on: membrane compromised bovine sperm stained with Hoechst 33342; assay: Dead quenching: dead gate intensity divided by live gate intensity, flow cytometry of stained bovine sperm; type: cell-based; details: for Dead Intensity (dead gate intensity divided by live gate intensity): Ex 5; for Intensity (dead gate): Hoechst 48 μM
From the text: FIG. 4 illustrates an example bivariate plot and univariate histogram of the parameters measured during sex selection by a FACS on a flow cytometer. […] Without a dead quenching dye, both populations of sperm would overlap to a large extent, with unpredictable variations in the dead sperm.
The entire ejaculate of sperm was suspended in first staining buffer, specifically a 7.4 pH TALP described in TABLE 1, to a concentration of 160×10^6 sperm per mL (determined on nucleocounter) and divided into three aliquots of about 20 mL into 50 mL Falcon tubes and pre-warmed for 10 minutes at 34° C. The DNA selective fluorescent dye, Hoechst 33342, was added and samples were held at 34° C. for 60 minutes. 3 different Hoechst 33342 Stain Levels were used=12 μL, 14 μL and 16 μL per 2 mL (effective concentrations of 48 μM, 56 μM, 64 μM).
Preparation of the second buffer including the dead quenching dye—A 2 L bag of TALP, described in TABLE 1, was adjusted to pH 5.60 using HCl and then sterile filtered. […] For each of the four dyes tested (R40—red food dye No. 40, Y5—yellow food dye No. 5, Y6—yellow food dye No. 6 and PR—phenol red), an appropriate number of milligrams of each powder was placed in a Erlenmeyer Flask and then an exact amount of TALP pH 5.60 was added to create a […] concentration of the dye. The result was a working TALP stock for each dye with a 100% (125 μM) relative amount of dye 50% relative (62.5 μM) and 20% relative (25 μM) solutions were made by dilution of 100% by TALP pH 5.60.
After this “bulk” staining for 60 minutes, 1 mL aliquots of stained sperm were combined with 1 mL aliquots of the second buffer including the dead quenching dyes. Samples sat for approximately 30 minutes at room temperature before being analyzed on a MoFlo SX (Beckman Coulter, USA) sperm sorting flow cytometer. Event rates were held as close to 13,000 as possible at the point of data acquisition.
The total number of individual treatments was 42 tubes, each containing 2 mL of stained sample. The alignment of the sorter was established using nuclei and confirmed with live sample from the 50% Red 40 series. Once good alignment was established, each tube was placed on the sorter long enough to establish a stabile dead gate population (about 30 seconds) and then a screenshot was taken and saved as a .jpeg image. This approach of rapidly documenting each sample is used to assure the most consistent alignment between all samples. Realignment of sorter will not cause differences in the intensities of live and dead gate populations but will cause differences in split quality.
FIG. 4 illustrates an example histogram. The ratio of dead gate intensity divided by live gate intensity is created by dividing the distance “A” by the distance “B” shown as a percentage. Lower values mean higher levels of quenching. The ratio of peak height divided by valley height is created by dividing the distance “C” by the distance “D”. A value of 1.00 means “no split” while higher values mean “better splits”. […]

[3] = solvent water, cited from earlier work
[4] = dye 62.5 μM, Hoechst 12 μL/2 mL
[5] = dye 62.5 μM, Hoechst 14 μL/2 mL
[6] = dye 62.5 μM, Hoechst 16 μL/2 mL

Structure (SMILES): O=S1(=O)OC(c2ccc(O)cc2)(c2ccc(O)cc2)c2ccccc21 [Phenol Red, phenolsulfonphthalein]
- Height of Peak/Height of Valley ([1]; dye 25 μM, Average of 12 and 14 μL series): 1.74
- Height of Peak/Height of Valley ([1]; dye 25 μM, Hoechst 12 μL/2 mL): 1.82
- Height of Peak/Height of Valley ([1]; dye 25 μM, Hoechst 14 μL/2 mL): 1.65
- Height of Peak/Height of Valley ([1]; dye 25 μM, Hoechst 16 μL/2 mL): 1.00
- Height of Peak/Height of Valley ([1]; dye 62.5 μM, Average of 12 and 14 μL series): 1.75
- Height of Peak/Height of Valley [1, 4]: 1.62
- Height of Peak/Height of Valley [1, 5]: 1.87
- Height of Peak/Height of Valley [1, 6]: 1.00
- Height of Peak/Height of Valley ([1]; dye 125 μM, Average of 12 and 14 μL series): 1.62
- Height of Peak/Height of Valley ([1]; dye 125 μM, Hoechst 12 μL/2 mL): 1.49
- Height of Peak/Height of Valley ([1]; dye 125 μM, Hoechst 14 μL/2 mL): 1.75
- Height of Peak/Height of Valley ([1]; dye 125 μM, Hoechst 16 μL/2 mL): 1.00
- PV ([1]; Ex 6, dye 125 μM, pH 7.40, Hoechst 48 μM): 1.27
- PV ([1]; Ex 6, dye 125 μM, resulting pH 6.70, Hoechst 48 μM): 1.00
- PV ([1]; Ex 6, dye 250 μM, pH 7.40, Hoechst 48 μM): 1.22
- PV ([1]; Ex 6, dye 250 μM, resulting pH 6.70, Hoechst 48 μM): 1.17
- PV ([1]; Ex 6, dye 500 μM, pH 7.40, Hoechst 48 μM): 1.51
- PV ([1]; Ex 6, dye 500 μM, resulting pH 6.70, Hoechst 48 μM): 1.25
- PV ([1]; Ex 6, dye 750 μM, pH 7.40, Hoechst 48 μM): 1.46
- PV ([1]; Ex 6, dye 750 μM, resulting pH 6.70, Hoechst 48 μM): 1.25
- PV ([1]; Ex 6, dye 875 μM, pH 7.40, Hoechst 48 μM): 1.44
- PV ([1]; Ex 6, dye 875 μM, resulting pH 6.70, Hoechst 48 μM): 1.20
- PV ([1]; Ex 6, dye 1250 μM, pH 7.40, Hoechst 48 μM): 1.30
- PV ([1]; Ex 6, dye 1250 μM, resulting pH 6.70, Hoechst 48 μM (understained)): 1.29
- Height of Peak Divided by Height of Valley ([1]; cells 100 million per mL): 1.49
- Height of Peak Divided by Height of Valley ([1]; cells 150 million per mL): 1.34
- Height of Peak Divided by Height of Valley ([1]; cells 250 million per mL): 1.43
- Height of Peak Divided by Height of Valley ([1]; cells 300 million per mL): 1.36
- PV ([1]; Ex 8, Bull 1, Hoechst 44 μM, PR 250 μM with Y6 50 μM): 1.52
- PV ([1]; Ex 8, Bull 1, Hoechst 44 μM, PR 500 μM alone): 1.97
- PV ([1]; Ex 8, Bull 1, Hoechst 60 μM, PR 375 μM alone): 2.38
- PV ([1]; Ex 8, Bull 1, Hoechst 60 μM, PR 375 μM with Y6 50 μM): 2.38
- PV ([1]; Ex 8, Bull 1, Hoechst 60 μM, PR 1200 μM with R40 20 μM): 2.12
- PV ([1]; Ex 8, Bull 2, Hoechst 28 μM, PR 375 μM alone): 1.96
- PV ([1]; Ex 8, Bull 2, Hoechst 28 μM, PR 375 μM with Y6 50 μM): 2.05
- PV ([1]; Ex 8, Bull 2, Hoechst 44 μM, PR 225 μM with Y6 50 μM): 1.56
- PV ([1]; Ex 8, Bull 2, Hoechst 44 μM, PR 375 μM with R40 20 μM): 1.64
- PV ([1]; Ex 8, Bull 2, Hoechst 44 μM, PR 375 μM with Y6 50 μM): 1.75
- PV ([1]; Ex 8, Bull 2, Hoechst 60 μM, PR 375 μM with Y6 50 μM): 1.69
- PV ([1]; Ex 8, Bull 2, Hoechst 60 μM, PR 375 μM with Y6 375 μM): 2.31
- effect of addition on split quality, in words ([1]; Ex 8, each Hoechst level, with Red 40 or Yellow 6): always improved split quality
- split enhancing effect compared to control, in words ([1]; Ex 10, 15, 45, 125 μM, averaged over 8 bulls): consistent split improvements at all concentrations after 30 minutes
- Dead Intensity (dead gate intensity divided by live gate intensity) ([2]; dye 25 μM, Average of Hoechst levels): 94%
- Dead Intensity (dead gate intensity divided by live gate intensity) ([2]; dye 25 μM, Hoechst 12 μL/2 mL): 94%
- Dead Intensity (dead gate intensity divided by live gate intensity) ([2]; dye 25 μM, Hoechst 14 μL/2 mL): 97%
- Dead Intensity (dead gate intensity divided by live gate intensity) ([2]; dye 25 μM, Hoechst 16 μL/2 mL): 90%
- Dead Intensity (dead gate intensity divided by live gate intensity) ([2]; dye 62.5 μM, Average of Hoechst levels): 87%
- Dead Intensity (dead gate intensity divided by live gate intensity) [2, 4]: 90%
- Dead Intensity (dead gate intensity divided by live gate intensity) [2, 5]: 90%
- Dead Intensity (dead gate intensity divided by live gate intensity) [2, 6]: 80%
- Dead Intensity (dead gate intensity divided by live gate intensity) ([2]; dye 125 μM, Average of Hoechst levels): 79%
- Dead Intensity (dead gate intensity divided by live gate intensity) ([2]; dye 125 μM, Hoechst 12 μL/2 mL): 80%
- Dead Intensity (dead gate intensity divided by live gate intensity) ([2]; dye 125 μM, Hoechst 14 μL/2 mL): 80%
- Dead Intensity (dead gate intensity divided by live gate intensity) ([2]; dye 125 μM, Hoechst 16 μL/2 mL): 78%
- amount of dye needed for a similar dead gate intensity ratio as red food dye No. 40 and yellow food dye No. 6 ([2]; Ex 6): twelve times more
- Intensity (dead gate) ([2]; Ex 6, dye 125 μM, pH 7.40): 85%
- Intensity (dead gate) ([2]; Ex 6, dye 125 μM, resulting pH 6.70): 79%
- Intensity (dead gate) ([2]; Ex 6, dye 250 μM, pH 7.40): 76%
- Intensity (dead gate) ([2]; Ex 6, dye 250 μM, resulting pH 6.70): 70%
- Intensity (dead gate) ([2]; Ex 6, dye 500 μM, pH 7.40): 66%
- Intensity (dead gate) ([2]; Ex 6, dye 500 μM, resulting pH 6.70): 67%
- Intensity (dead gate) ([2]; Ex 6, dye 750 μM, pH 7.40): 56%
- Intensity (dead gate) ([2]; Ex 6, dye 750 μM, resulting pH 6.70): 55%
- Intensity (dead gate) ([2]; Ex 6, dye 875 μM, pH 7.40): 47%
- Intensity (dead gate) ([2]; Ex 6, dye 875 μM, resulting pH 6.70): 45%
- Intensity (dead gate) ([2]; Ex 6, dye 1250 μM, pH 7.40): 43%
- Intensity (dead gate) ([2]; Ex 6, dye 1250 μM, second buffer pH 5.60 (resulting pH 6.70)): 41%
- Expected Absorption Maxima ([3]; longer-wavelength local maximum): 560 nm
- Expected Absorption Maxima ([3]; shorter-wavelength local maximum): 440 nm
